Where two headings read alike, the source gives them in different places. Where a SMILES comes first, the peptide text is derived from it. Where no end group is shown, it is not given here.
Key:
[1] = test system: KIX–MLL interaction; conditions: cited from earlier work
Protocol: Previous studies have reported several inhibitors that bind the MLL site of KIX, including isoxazolidine derivatives, which are small molecule compounds that mimic the function of the TADs of transcriptional activators, and natural products such as sekikaic acid and lobaric acid[21],[22]. […] However, the EC50 and IC50 values of these small molecule inhibitors are 10- to 100-fold larger than the Kd for the KIX–MLL interaction (2.02 ± 0.04 μM).

[2] = biological target: T1, KIX (Mus musculus, UniProt P45481); assay: KIX binding by isothermal titration calorimetry (ITC); conditions: 30 °C; for − TΔS: entropy term upon KIX binding, pH 7.0, ΔS=(ΔH-ΔG)/T, mean ± standard error of triplicate or more; for N (stoichiometry of binding): pH 7.0, mean ± standard error of triplicate or more
T1 construct: The DNA fragment of KIX (residues 586–672 of mouse CBP); 6xHis-tag with thrombin cleavage site (N); made in house; host or cells: E. coli BL21(DE3)pLysS
T1 sequence (P45481 586-672): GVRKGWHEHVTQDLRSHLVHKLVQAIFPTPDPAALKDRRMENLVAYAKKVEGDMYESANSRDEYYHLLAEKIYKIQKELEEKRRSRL
Protocol: For the expression of MLL TAD, E. coli BL21(DE3) competent cells were transformed with the plasmid and cultivated at 37 °C in 2 × YT liquid medium supplemented with ampicillin. When an optical density at 600 nm (OD600) of the cell culture reached 0.7–0.8, 1 mM isopropyl β-D-1-thiogalactopyranoside was added to induce protein expression. After 4 h of cultivation, the cells were harvested by centrifugation. The E. coli cell pellet was suspended with buffer HP (50 mM sodium phosphate [pH 7.4], 300 mM NaCl, 10 mM imidazole, and 6 M guanidine hydrochloride). The sonicated lysate was centrifuged at 4 °C, and the supernatant was filtered using a membrane filter and applied to a gravity column (50 mL) containing 5 mL of nickel-nitrilotriacetic acid (Ni–NTA) resin (Qiagen, Hilden, Germany). The column was washed with buffer HP and buffer AP (50 mM sodium phosphate [pH 7.4], 300 mM NaCl, and 10 mM imidazole) to remove impurities. To elute His-tag–GB1–MLL TAD for ITC and SPR measurements, 40 mL of buffer EP (50 mM sodium phosphate [pH 7.4], 300 mM NaCl, and 250 mM imidazole) was added to the column. […] Thus, His-tag–GB1–MLL TAD was used in the ITC measurements, with the exception of the four mutants (I2849L, D2851L, K2855R, and T2857I). To obtain the MLL TAD peptide without His-tag–GB1 for CD measurements, we washed the column, to which the His-tag–GB1–MLL TAD was attached, with buffer TP (50 mM sodium phosphate [pH 7.4] and 300 mM NaCl), added 150 units of thrombin to the column for digestion of the His-tag–GB1, and eluted the MLL TAD peptide with buffer TP. After Ni–NTA column purification, anion exchange chromatography was performed to further purify the aforementioned four mutants without His-tag–GB1 using the AKTAprime plus chromatography system (Cytiva, Marlborough, MA, USA; 10 mM sodium phosphate [pH 6.0] and 0–1 M NaCl). Due to the fact that the CD spectra of the four mutants were unchanged before and after the anion exchange chromatography, we omitted this procedure for other mutants.
Expression and purification of the KIX protein was performed in the same way as MLL, except that E. coli BL21(DE3)pLysS competent cells and 2 × YT liquid medium with ampicillin and chloramphenicol were used. After Ni–NTA column purification, gel filtration chromatography was performed using a Superdex 200 pg column (Cytiva) and the ITC buffer (20 mM Tris–acetate [pH 7.0] and 50 mM NaCl).
ITC measurements were performed using MicroCal iTC200 (Malvern Panalytical Ltd., Malvern, United Kingdom) at 30 °C. Samples were sufficiently dialyzed with the ITC buffer before measurements. The 600 μM MLL solution was titrated into the cell containing 45 µM KIX. The data were analyzed using the Origin 7 software (OriginLab Corp., Northampton, MA, USA; https://www.originlab.com) to obtain the Kd (M), ΔH (kcal/mol), and stoichiometry of binding, N. The ΔG (kcal/mol) and ΔS (kcal/mol/K) were obtained as follows:2 ΔG=-RTln1/Kd 3 ΔS=ΔH-ΔG/T where R is the gas constant, and T is the temperature.

[3] = Helix contents estimated from far-UV CD spectra; type: physicochemical; conditions: 30 μM peptide without His-tag–GB1, 30 °C, pH 7.0, CONTINLL with SDP48 reference set
Protocol: CD spectra were measured using a J-805 spectropolarimeter (JASCO, Tokyo, Japan) from 200 to 250 nm in a quartz cuvette with a 1-mm path length at 30 °C. Protein concentrations were 30 μM. The CD intensity was converted to MRE using the following equation:1 MRE(deg cm^2dmol^-1)=CD(mdeg)/N·c(M)·l(mm) where N is the number of residues, c is the protein concentration, and l is the path length.
The helix contents of the MLL TAD peptide were calculated from the far-UV CD spectra using the CONTINLL program[42] with the reference data set containing soluble and denatured proteins (SDP48) in the CDPro package.

[4] = biological target: KIX; conditions: previously reported value for binding between KIX and MLL TAD; cited from earlier work
Description: Previous studies have reported several inhibitors that bind the MLL site of KIX, including isoxazolidine derivatives, which are small molecule compounds that mimic the function of the TADs of transcriptional activators, and natural products such as sekikaic acid and lobaric acid[21],[22].

[5] = inhibition of the KIX–MLL interaction

Row | Molecule | − TΔS [2] [kcal/mol] | also measured
1 | O=C(Nc1ccc(Cl)cc1)c1cc2ccccc2cc1OP(=O)(O)O [KG-501] |  | IC50 ([1]; small molecule inhibitor of the KIX–MLL interaction): 200 ± 10 µM
2 | T2857Y: T2857Y mutant of the MLL TAD peptide ({His6-GB1}-GNILPSDIMDFVLKNYPSMQALGESPESY) | 4.5 ± 0.2 | 
3 | CC[C@H](C)[C@H](NC(=O)[C@H](CC(=O)O)NC(=O)[C@H](CO)NC(=O)[C@@H]1CCCN1C(=O)[C@H](CC(C)C)NC(=O)[C@@H](NC(=O)[C@H](CC(N)=O)NC(=O)CN)[C@@H](C)CC)C(=O)N[C@@H](CCSC)C(=O)N[C@@H](CC(C)C)C(=O)N[C@@H](Cc1ccccc1)C(=O)N[C@H](C(=O)N[C@@H](CC(C)C)C(=O)N[C@@H](CCCCN)C(=O)N[C@@H](CC(N)=O)C(=O)N[C@H](C(=O)N1CCC[C@H]1C(=O)N[C@@H](CO)C(=O)N[C@@H](CCSC)C(=O)N[C@@H](CCC(N)=O)C(=O)N[C@@H](C)C(=O)N[C@@H](CC(C)C)C(=O)NCC(=O)N[C@@H](CCC(=O)O)C(=O)N[C@@H](CO)C(=O)N1CCC[C@H]1C(=O)N[C@@H](CCC(=O)O)C(=O)N[C@@H](CO)C(=O)N[C@@H](Cc1ccc(O)cc1)C(=O)O)[C@@H](C)O)C(C)C [D2851L] (H-GNILPSDIMLFVLKNTPSMQALGESPESY-OH; N-terminus and C-terminus assumed) | 1.4 ± 0.4 | N (stoichiometry of binding) [2]: 1.020 ± 0.006
4 | CC[C@H](C)[C@H](NC(=O)[C@H](CC(=O)O)NC(=O)[C@H](CO)NC(=O)[C@@H]1CCCN1C(=O)[C@H](CC(C)C)NC(=O)[C@@H](NC(=O)[C@H](CC(N)=O)NC(=O)CN)[C@@H](C)CC)C(=O)N[C@@H](CCSC)C(=O)N[C@@H](CC(=O)O)C(=O)N[C@@H](Cc1ccccc1)C(=O)N[C@H](C(=O)N[C@@H](CC(C)C)C(=O)N[C@@H](CCCCN)C(=O)N[C@@H](CC(N)=O)C(=O)N[C@H](C(=O)N1CCC[C@H]1C(=O)N[C@@H](CO)C(=O)N[C@@H](CCSC)C(=O)N[C@@H](CCC(N)=O)C(=O)N[C@@H](C)C(=O)N[C@@H](CC(C)C)C(=O)NCC(=O)N[C@@H](CCC(=O)O)C(=O)N[C@@H](CO)C(=O)N1CCC[C@H]1C(=O)N[C@@H](CCC(=O)O)C(=O)N[C@@H](CO)C(=O)N[C@@H](Cc1ccc(O)cc1)C(=O)O)[C@@H](C)O)C(C)C [wild type, reference compound] | 5.2 ± 0.1 | N (stoichiometry of binding) [2]: 1.02 ± 0.01; helix contents [3]: ~ 5.7%; Kd [4]: 2.1 µM
5 | K2855R / T2857L: K2855R/T2857L double mutant of the MLL TAD peptide ({His6-GB1}-GNILPSDIMDFVLRNLPSMQALGESPESY) | 1.5 ± 0.2 | 
6 | CCCc1cc(OC)cc(O)c1C(=O)Oc1c(OC)cc(CCC)c(C(=O)O)c1O [sekikaic acid] |  | IC50 [1, 5]: 34 µM
7 | K2855R / T2857W: K2855R/T2857W double mutant of the MLL TAD peptide ({His6-GB1}-GNILPSDIMDFVLRNWPSMQALGESPESY) | 3.86 ± 0.05 | 
8 | T2857L: T2857L mutant of the MLL TAD peptide ({His6-GB1}-GNILPSDIMDFVLKNLPSMQALGESPESY) | 2.6 ± 0.1 | 
9 | T2857K: T2857K mutant of the MLL TAD peptide ({His6-GB1}-GNILPSDIMDFVLKNKPSMQALGESPESY) | 4.4 ± 0.2 | 
10 | CCCCCc1c2c(cc(O)c1C(=O)O)OC(=O)c1c(cc(OC)cc1C(=O)CCCC)O2 [lobaric acid] |  | IC50 [1, 5]: 17 µM
